Key:
[1] = Intrinsic Dissolution Rate (IDR) test, USP apparatus 2 (paddles); type: physicochemical; settings: for Ratio: IDR of co-crystal relative to agomelatine; for IDR: 37°C, 100 rpm, 2 hours, calculated from slope of straight line
Source text: The aim of this study was to measure intrinsic dissolution rate (IDR) of some crystalline forms of the present invention in order to compare them with the IDR of the agomelatine. Intrinsic dissolution rate is defined as the dissolution rate of pure substance under the condition of constant surface area.
Figures 20 and 21 show the results of intrinsic dissolution rate performed with co-crystals obtained in examples 4 and 5. The IDR behaviour of agomelatine and the co-crystal of agomelatine - gentisic acid (1:1), agomelatine - citric acid (1:1) from the present invention was tested in USP apparatus 2 (paddles) at 37°C and 100 rpm with 2 hours in a solution of 0,1 N HCl (figure 20) and 2 hours in a buffer solution at pH 6.8 (figure 21). The intrinsic dissolution rate was calculated from the slope of the straight line obtained.

[2] = tested on: α, β adrenergic, histaminergic, cholinergic, dopaminergic and benzodiazepine receptors; settings: cited from earlier work
monoamine uptake = settings: cited from earlier work
[3] = cited from earlier work

Ratio ([1]; Media Buffer pH 6.8) | Ratio ([1]; Media HCl 0.1M) | IDR ([1]; Media Buffer pH 6.8) [mg/cm^2·s] | IDR ([1]; Media HCl 0.1M) [mg/cm^2·s] | Structure (SMILES) | affinity [2] | effect on monoamine uptake (monoamine uptake) | solubility in various organic solvents ([3]; 96% ethanol, methanol, methylene chloride, freely soluble) [mg/mL] | solubility in purified water ([3]; purified water, practically insoluble)
1.70 | 1.28 | 0.0453 | 0.0447 | COc1ccc2cccc(CCNC(C)=O)c2c1 [agomelatine - gentisic acid (1:1) co-crystal] |  |  |  | 
 |  | 0.0267 | 0.0349 | COc1ccc2cccc(CCNC(C)=O)c2c1 [agomelatine, N-[2-(7-methoxynaphthalen-1-yl)ethyl]acetamide] | no affinity | no effect | > 100 | < 0,1 mg/ml
1.76 | 1.92 | 0.0470 | 0.0670 | COc1ccc2cccc(CCNC(C)=O)c2c1 [agomelatine-citric acid (1:1) co-crystal] |  |  |  | 

From patent EP2551257A1, “Co-crystals of agomelatine with co-crystal-formers” (Laboratorios del. Dr. Esteve, S.A., priority 2011, dated 2013)
